# From patent US11814341B2, “Non-peptidic cell-penetrating motifs” (Ohio State Innovation Foundation, priority 2018, dated 2023)
# Key:
# [1] = system: HeLa cells; experiment: MTT viability assay, anti-cancer activity of Hsp90 inhibitors; assay type: cell-based; settings: 24 h
# [2] = system: HeLa cells; experiment: JC-10 mitochondrial membrane potential assay; settings: 20 μM, 24 h; above the normal value
# Protocol: Procedure: Mitochondria membrane potential assay. Experiments were carried out by using JC-10 Mitochondrial Membrane Potential Assay kit (Abcam, ab112134) according to the manufacturer's manual. Briefly, HeLa cells (2×10^4 cells/well) were seeded in a 96-well plate (black wall clear bottom) in 90 μL of DMEM containing 10% FBS and 1% penicillin/streptomycin and allowed to attach overnight. […] Without washing, cells were treated with 50 μL of a JC-10 dye solution (30 μM in buffer A) for 60 min. Fifty μL of buffer B was added and the fluorescence intensities at Ex/Em=490/520 nm and 540/590 nm were recorded on a microplate reader (Infinite M1000Pro).
# CPM1-3 was next tested for a potential effect on mitochondrial membrane potential, a key indicator of cell health or injury. HeLa cells untreated or treated with CPM were labeled with JC-10, a dye molecule which emits green fluorescence inside the cytosol but red fluorescence inside the mitochondria. The ratio of green/red fluorescence (F520/F590) provides an indicator of the mitochondrial membrane potential.
Molecule,maximum reduction in HeLa cell viability ([1]; 0-10 μM),inhibitor concentration at which maximal inhibition was reached [1],increase in the F520/F590 ratio [2]
"COC1=C2C[C@@H](C)C[C@H](OC)[C@H](O)[C@@H](C)/C=C(\C)[C@H](OC(N)=O)[C@@H](OC)/C=C\C=C(/C)C(=O)NC(=CC1=O)C2=O [GA, geldanamycin]",~40%,0.3 µM,
p-trifluoromethoxy carbonyl cyanide phenyl hydrazone [FCCP],,,up to 7 fold
